From US20150071918A1, “PEPTIDES FOR THE TREATMENT OF CANCER” (H. LEE MOFFITT CANCER CENTER AND RESEARCH INSTITUTE, INC., priority 2012, published 2015)
*1 amine or outer side, *2 acyl side, *3 side chain or, on linkers, in order; H or OH if unused. Where a SMILES comes first, the peptide text is derived from it. Bridges are numbered along the chain shown (N, C = ends). [ ]: non-standard residue; d: D form. The star is where a group is joined. dProlinol(O-CH2CO) = O=C(COC[C@H]1CCCN1[*:1])[*:2]; N(2-Aminoethyl)Gly = O=C(CN(CCN[*:3])[*:1])[*:2]; Nle = CCCC[C@H](N)C(=O)O; Ms = CS(=O)(=O)*

Tests used:
[1] = system: cleaved caspase-3, ATP in NCI-H929 and U266 MM cells; experiment: Mechanism of cell death in MM cells (cleaved caspase-3, ATP, ROS); type: cell-based
Method: FIGS. 56A-56F. […] FIG. 56A: Chemical structure of MTI-101 (also referred to herein as HM-27). FIG. 56B: Direct comparison of HYD1 and MTI-101 in NCI-H929 cells. […] FIG. 56F: NCI-H929 and U266 cells were treated with MTI-101 or tert-butyl hydrogen peroxide as a positive control for 1 hour, stained with CellRox Green for 30 minutes and washed, with FACS analysis to determine ROS production. All experiments were run in triplicate and repeated 3 independent times. Statistical significance using ANOVA, *P≦0.05. Similar to linear peptide HYD1, the cyclized peptide MTI-101 induces caspase independent cell death in myeloma cell lines.

[2] = Weight of mice and overt signs of toxicity under peptide injection; type: in vivo; details: mice treated with cyclized HYD1
Method: FIG. 37 is a graph showing the effect of cyclized HYD1 (MTI-101) injection on the weight of mice.
FIG. 49. Cyclic HYD1 (MTI-101) was dosed daily at 8 mpk for the first week and then every other day for 4 weeks. The mice were bled weekly to measure paraprotein as a surrogate for tumor burden. […] Three of five vehicle-treated control animals had died by 35 days which contributes to the large SD.

[3] = system: Caspase 3 activity and total ATP levels in AML cell lines; experiment: Markers of cell death in AML cell lines (Caspase 3 activity, ATP levels); type: cell-based
Method: FIGS. 42A-42B. […] U937, HL-60 and NB4 cells were treated with varying doses of HM-27 for 24 hr and cell death was determined as described in Materials and Methods. U937 and NB4 cells (150,000) exposed to HM-27 for 24 h were collected and analyzed for Caspase 3 activity using the FITC Active Caspase-3 Apoptosis Kit (BDPharmingen) as per manufacturer's instructions. All figures are a representative of three independent experiments done in triplicates.
FIGS. 43A-43C. Cell death in AML cell lines by HM-27 (MTI-101) is via necrosis. Drug-treated cells (50 μM for U937 and 75 μM for HL-60) were lysed in 2% Triton X-100 in PBS with protease inhibitors (Roche) and incubated on ice for 45 min with mixing every 15 min. The supernatant (lysate) was collected after centrifugation for 20 sec at 10K rcf and 4° C. […] Twenty microliters (20 μL) of the lysate was mixed with 100 μL of the (rL/L) reagent from the kit and the luminescence was measured immediately. The luminescence was corrected by subtracting the value obtained from the blank and was checked against a standard. The luminescence was then multiplied by 50 to represent the total ATP levels from the 1.2×10^6 cells collected. […]
Cells were collected after incubation with HM-27 and analyzed for markers of cell death indicative of either apoptosis, autophagy or necrosis. […] Cell death was assessed by TO-PRO-3 staining followed by FACS analysis.

[4] = system: pPyk2, pAkt and pErk1/2 in U937 or HL-60 cells; experiment: Western blot of signaling in AML cells after peptide treatment; type: cell-based; details: U937 or HL-60, 50 μM MTI-101, western blot
Method: FIG. 44. U937 or HL-60 cells were treated with 50 μM MTI-101 for the indicated times and pPyk2, pAkt and pErk1/2 were detected by western blot analysis.
Consistent with data obtained with the linear peptide, we show CD44 and VLA-4 are pulled down using biotin conjugated HM-27 as bait.

[5] = system: lung cancer (LC) cell lines; experiment: High-throughput CellTiter-Blue cell viability assay in lung cancer cell lines; type: cell-based; details: IC50 values shown only in figure
Method: FIG. 35 is a graph showing IC-50 levels of 24 lung cancer (LC) cell lines treated with cyclized HYD1 (MTI-101). The activity of c-HYD1 was screened using a high-throughput CellTiter-Blue cell viability assay. Cell viability was assessed by the ability of the remaining viable cells to bioreduce resazurin to resorufin. Resazurin is dark blue in color and has little intrinsic fluorescence until it is reduced to resorufin (579 nm Ex/584 nm Em). The change in fluorescence was measured with a Synergy 4 microplate reader (Bio-Tek Instruments, Inc.). […] IC50s were determined as the concentration of drug required for 50% reduction in growth/viability. Shown is the mean IC50 value for each lung cancer cell line tested. Experiments were repeated 2-3 times.
FIG. 67. […] IC50 values were calculated from survival curves and the mean value is represented (n=2 independent experiments).

Which “cleaved caspase-3 activity in MM cells” value [1] does the source give for `CCCC[C@@H]1NC(=O)CN(S(C)(=O)=O)CCNC(=O)[C@H](CCCCN)NC(=O)[C@H](CC(C)C)NC(=O)[C@H](CCCCN)NC(=O)[C@H](CC(C)C)NC(=O)[C@H](CCCCN)NC(=O)COC[C@H]2CCCN2C(=O)[C@H](Cc2c[nH]c3ccccc23)NC(=O)[C@H](C)NC(=O)[C@H](C(C)C)NC(=O)[C@H](C(C)C)NC1=O` [MTI-101] (Ms-[N(2-Aminoethyl)Gly][Nle]VVAW[dProlinol(O-CH2CO)]KLKLK; lactam 1-C) here?
Its value is “does not induce cleaved caspase-3 activity”.

And the “total cellular ATP in MM cells” value [1]?
Its value is “reduces total cellular levels of ATP in NCI-H929 and U266 cells”.

And the “weight loss / signs of toxicity” value [2]?
The value was “No weight loss or any overt signs of toxicity were observed”.

What about the “weight loss / signs of toxicity” value ([2]; listed as c-HYD1) of the same molecule?
Its value is “no apparent toxicity”.

And the “ATP levels in AML cell lines” value [3]?
Its value is “resulted in ATP depletion”.

What about the “Caspase 3 activation in AML cell lines” value ([3]; 24 h) of the same molecule?
Its value is “did not cause activation of Caspase 3”.

What about the “phospho-protein levels in AML cells” value [4] of the same molecule?
The value was “increased the levels of pPyk2 and pErk1/2, but not pAKT”.

What about the “phospho-protein levels in AML cells” value ([4]; listed as HM-27) of the same molecule?
Its value is “induced an early activation of Erk1/2 in AML cells”.

What about the “growth of lung cancer cell lines” value [5] of the same molecule?
The value was “inhibits the growth of several lung cancer cell lines”.
